Tests used:
[1] = system: predicted off-target sites; assay: INDEL frequency at predicted off-target sites (CasOFFinder, targeted deep sequencing) in Jurkat cells; type: cell-based, human; conditions: crPDCD1: <=4 mismatches, remaining gNAs <=3 mismatches, vs MOCK, Pairwise T-test
Experimental: Another consideration for selecting gNAs is the potential for off-target cleavage events. The list of validated gNAs was analyzed using the CasOFFinder software to predict potential off-target editing sites in the genome with up to four mismatches between the gNA and the target DNA sequence. Using the Bioconductor R packages, the predicted off-target sites were matched with the human gene database, and those sites that targeted exons and introns within the genes were extracted. Afterwards, the degree of editing activity at these sites was examined by targeted next-generation sequencing, more specifically, at 25 predicted off-target sites for the top-two PDCD1 gNAs, i.e., crPDCD1_1 and crPDCD1_2. […] INDEL frequency at 43 putative off-target sites with up to three mismatches between gNA and target DNA sequence were assayed for the top-two gNAs targeting seven remaining genes (i.e., TIM3, LAG3, TIG1T, CTLA4, PTPN6, PTPN11, and CD247; spacer sequences in Table 5). […] Specifically. FIGS. 18-19 show INDEL frequency of MAD7 (n=3; Mean±SD) in T-cell leukemic cell line at predicted off-target sites analyzed by targeted deep sequencing. For crPDCD1. INDEL frequency was analyzed at the putative off-target editing sites with ≤4 mismatches between the gNA and target DNA sequence, and with ≤3 mismatches on the remaining gNAs.

[2] = system: PDCD1 protein; assay: Surface expression of the PDCD1 protein by flow cytometry in Jurkat cells; type: cell-based, human; conditions: flow cytometry 4, 7 and 11 days post-transfection, crPDCD1_2 value at day 4, same at day 11
Experimental: For detection of PDCD1 knock-out efficiency, approx. 250,000 Jurkat cells per sample were transferred onto 96-well V-bottom cell culture plates and assessed following a series of consecutive washing and staining steps. The first step included centrifuging the cells at 300 g for 5 minutes at 4° C., and discarding the supernatant. Afterwards, the cells were stained using 100 μL Cell Staining Buffer (Biolegend) with APC/Cyanine7 anti-human CD279 (PD-1) antibody (1:100: Biolegend) and incubated for 30 minutes at 4° C., in the dark. The cells were then centrifuged at 300 g for 5 minutes at 4° C., and the supernatant discarded. The next step included two repeats of centrifugation at 300 g for 5 minutes at 4° C., supernatant removal, and cell washing in 150 μL ice-cold Cell Staining Buffer (Biolegend). In the final step, the cells were re-suspended in 100 μL Cell Staining Buffer for the flow cytometry measurements (excitation: red laser; emission: […]).
(§1) High-efficiency gNAs identified in our initial analysis were validated by assaying INDEL frequency for the top three or five gNAs for each of the selected immunologically relevant genes (FIG. 15). […] Alternating grey and white zones on the plot represent groups of three to five high-efficiency gNAs per locus. […] Using the CRISPresso2 software, the degree of open reading frame (ORF) disruption for each of the validated gNAs was estimated (FIG. 15). In addition, for four high-efficiency gNAs targeting three different exons at the PDCD1 locus, surface expression of the PDCD1 protein was measured by flow cytometry 4, 7, and 11 days post-transfection (data not shown).

[3] = system: TIM3; assay: gNA validation: frameshift (ORF disruption) frequency, TIM3; type: cell-based, human; conditions: Jurkat, CRISPResso2 ORF analysis
Experimental: Initial quality assessment of the obtained reads was performed with FastQC36. The sequencing data were aligned and analyzed with the CRISPResso2 software, using CRISPRessoBatch command with the parameters—cleavage_offset 1—quantification_window_size 10—quantification_window_center 1—expand_ambiguous_alignments for the INDEL frequency analysis. For the ORF disruption analysis, CRISPRessoBatch command with the parameters—cleavage_offset 1—coding_seq <EXON_SEQ>—quantification_window_size 0—quantification_window_center 1—expand_ambiguous_alignments was used. Modification rates from the CRISPResso2 software output were analyzed in Excel.
as §1
Average fraction of INDELs leading to frameshifts (dashed line) is approx. 66%. […]

[4] = system: CSF2; assay: Cutting efficiency by Amplicon-NGS in Jurkat cells, CSF2; type: cell-based, human
Excerpt: (§2) T-cells were isolated […] buffy coats and nucleofected after two days. The buffy coats were procured from the Rigshospitalet in Copenhagen, Denmark. The Pan-T cells were enriched by negative selection using an Easy Sep Human T-cell Isolation Kit from StemCell Technologies. The RNPs were formed by mixing gRNAs with Art-Mad7mam+ prior to nucleofection with Jurkat or T-cells. In some cases, synthetic ssODNs (Table 11) with a length of 200 nt were included in the transfections to evaluate impact on frame shift mutation rates by HDR rather than relying on NHEJ alone in an effort to maximize functional disruption. The ssODNs were designed to comprise a deletion of the spacer and PAM sequence thereby resulting in a programmed frame shift. After transfection, the cells were cultivated and assayed for the different readouts. The nucleofection with dual gRNAs followed a similar protocol, but with minor differences in pre-assembling of the gRNAs. Briefly, the two dual RNAs (modulator and targeter) are combined in a molecular ratio of 1:1 (400 μM Modulator
At the genome level, Amplicon-NGS was used to determine the type and mutation frequency at the on-target site. The Amplicon-NGS assay is based on the amplification of the on-target site using specific primer pairs. […] Crispresso aligns the sequencing reads to the reference amplicon and analyzes the mutation type and frequency −/+10 nt at the putative cut site of Art-Mad7mam+ based on the provided gRNA sequence. […]
The cutting efficiency was calculated as the percentage of reads with any NHEJ modification (including insertions, deletions, and/or substitutions) of the total number of reads that were aligned to the reference amplicon. […]
The top gRNAs identified in the tiling experiments in, were further tested by performing additional nucleofections in Jurkat cells and measuring viability, INDEL formation by amplicon-NGS, and functional flow cytometry assays. […] For the Amplicon-NGS readout three days after transfection, genomic DNA was prepared, amplicons generated, and sequence analyzed. […]

[5] = system: CSF2; assay: On-target Amplicon-NGS in Pan T-cells, CSF2; type: cell-based, human
Excerpt: as §2
(§3) At the genome level, Amplicon-NGS was used to determine the type and mutation frequency at the on-target site. The Amplicon-NGS assay is based on the amplification of the on-target site using specific primer pairs. The primers are designed to have the predicted cutting site at the center and a length of 180-280 nt. The amplicons are indexed for NGS and sequenced on an Illumina MiSeq system. The analysis was performed using the Crispresso script. Crispresso requires the input of a configuration file comprised of the specific gRNA sequence, primer sequences and the theoretical amplicon that is based on the alignment of the primer pair to the reference human genome GRCh38. In addition, for HDR analysis associated with ssODN-programmable editing a reference sequence with the specific mutations can be input into the configuration file. Crispresso aligns the sequencing reads to the reference amplicon and analyzes the mutation type and frequency −/+10 nt at the putative cut site of Art-Mad7mam+ based on the provided gRNA sequence. As output, Crispresso delivers different mutation types and their frequencies: Substitutions, INDELs, HDR Unmodified, HDR INDELs, HDR+substitutions.
(§4) To further test the effects of ssODNs, single and dual gRNAs were mixed with Art-MAD7mam+ nuclease, and in some cases included a ssODN designed to create a programmed disruption in the target gene. The freshly isolated Pan-T cells were activated and cultured for 2 days, and RNPs−/+ssODNs were transfected using the Lonza 96-well plate shuttle. […]

[6] = system: CSF2; assay: Functional KO in Pan T-cells: intracellular CSF2 staining after PMA and Ionomycin; type: cell-based, human
Experimental: Protein expression for targeted genes was measured by antibody staining against the target protein to quantify functional disruption of the target gene. The efficiency of functional disruption was verified by antibody staining and quantified as the negative cell population by flow cytometry. TRBC, CD3E and CD40LG are located at the cell surface and living cells were stained with the corresponding antibodies. Since CSF2 is a secreted protein, cells were first activated, secretion was blocked, cells were fixed with formaldehyde, and permeabilized before the staining procedure. Given CD40LG and CSF2 are expressed upon stimulation of primary T-cells, cells were activated first to enhance their expression. The induction of CD40LG and CSF2 was achieved using anti-CD3/CD28 and PMA/Ionomycin, respectively.
The best CSF2 gRNA was identified as gCSF2_007 in the Jurkat experiment. In Pan T-cells, the cutting efficiency was approximately 65% and 45% and could be increased by ssODN inclusion to ˜80 and 70% for the regular and STAR design, respectively (FIG. 33E). […] The cells were treated with PMA and Ionomycin to strongly activate the cells and blocked the secretion of the protein with Golgiplug and Golgistop and stained the cells after fixation and permeabilization for the intracellular accumulated CSF2 proteins.

[7] = system: TRBC1 and TRBC2; assay: On-target Amplicon-NGS in Pan T-cells, TRBC; type: cell-based, human
Excerpt: as §2, §3, §4

[8] = system: human genes; assay: Editing efficiency of tested crRNAs / guide nucleic acids (Tables 7-10) detected in human cells; type: cell-based; conditions: tested crRNAs targeting human genes; target gene as given (Table 10)

crPDCD1_1: top-two PDCD1 gNA (guide GCACGAAGCTCTCCGATGTGT; spacer only, further chemistry not given here)
INDEL frequency at predicted off-target sites [1]: No significant INDEL frequency

crPDCD1_3: high-efficiency gNA targeting the PDCD1 locus (guide CAGTGGCGAGAGAAGACCCCG; spacer only, further chemistry not given here)
surface expression of the PDCD1 protein [2]: 35%

crPDCD1_4: high-efficiency gNA targeting the PDCD1 locus (guide CTAGCGGAATGGGCACCTCAT; spacer only, further chemistry not given here)
surface expression of the PDCD1 protein [2]: 85%

crPDCD1_5: high-efficiency gNA targeting the PDCD1 locus (guide GTGCTAAACTGGTACCGCATG; spacer only, further chemistry not given here)
surface expression of the PDCD1 protein [2]: 85%

crTIM3_1: validated high-efficiency gNA, TIM3 (guide CTTGTAAGTAGTAGCAGCAGC; spacer only, further chemistry not given here)
frameshifts frequency (fraction of frameshift to INDEL) [3]: 23%

crTIM3_3: validated high-efficiency gNA, TIM3 (guide TAAGTAGTAGCAGCAGCAGCA; spacer only, further chemistry not given here)
frameshifts frequency (fraction of frameshift to INDEL) [3]: 44%

gCSF2_007: best CSF2 gRNA; dual form Targeter_CSF2_007 UUGUAGAUCACAGGAGCCGACCUGCCUAC (synthetic gRNA ordered from IDT, chemistry not given here)
Average on-target editing efficiency ([4]; CSF2 gRNAs, Jurkat cells, Amplicon-NGS): 31.1 | Total score ([4]; CSF2 gRNAs, combines on-target editing efficiency and predicted off-target score): 30.7 | cutting efficiency (rank among the three CSF2 gRNAs) ([4]; Jurkat verification): highest | cutting efficiency ([5]; STAR design): ~45% | cutting efficiency ([5]; STAR design, ssODN inclusion): ~70% | cutting efficiency ([5]; regular design): approximately 65% | cutting efficiency ([5]; regular design, ssODN inclusion): ~80% | negative CSF2 cell population ([6]; dual gRNA): ~60% | negative CSF2 cell population ([6]; dual gRNA with the ssODN): ~80% | negative CSF2 cell population ([6]; regular gRNA with the ssODN): ~90% | negative CSF2 cell population ([6]; regular gRNA, 70% of control cells CSF2 positive): ~75%

gTRBC1_2_003: gRNA targeting both TRBC1 and TRBC2; dual form Targeter_TRBC1_2_003 UUGUAGAUAGCCAUCAGAAGCAGAGAUCU (dual-guide targeter with IDT AltR2 3' modification, chemistry undefined, further chemistry not given here)
lower INDEL frequency, dual vs regular configuration [7]: ~5% | perfect HDR rate ([7]; inclusion of ssODNs): ~40% | mutation rate ([7]; inclusion of ssODNs, all cases): > 90% | INDEL frequency at the on-target site ([7]; regular gRNA configuration): ~90%

gU6_5 (guide ATATATCTTGTGGAAAGGACG; chemistry not given here)
% Indel [8]: 0.39%

gU6_6 (guide TATATCTTGTGGAAAGGACGA; chemistry not given here)
% Indel [8]: 0.39%

gU6_7 (guide TGGAAAGGACGAAACACCGTG; chemistry not given here)
% Indel [8]: 0.24%
